Publication PMC5762315, “Inhibition of polo-like kinase 4 (PLK4): a new therapeutic option for rhabdoid tumors and pediatric medulloblastoma” (Oncotarget, 2017)
Values joined by “and” are separate entries in the source; they are usually repeats but may differ in a detail not shown here. Equal values may be shown once.

Key:
Experiment in all cases: biochemical
Assay type in all cases: biochemical
various kinases [1] = molecular target: various kinases (Homo sapiens, UniProt Q52WX2); conditions: kinase SBK1; ZLYTE
various kinases (Homo sapiens, UniProt Q52WX2), sequence (Q52WX2 whole entry): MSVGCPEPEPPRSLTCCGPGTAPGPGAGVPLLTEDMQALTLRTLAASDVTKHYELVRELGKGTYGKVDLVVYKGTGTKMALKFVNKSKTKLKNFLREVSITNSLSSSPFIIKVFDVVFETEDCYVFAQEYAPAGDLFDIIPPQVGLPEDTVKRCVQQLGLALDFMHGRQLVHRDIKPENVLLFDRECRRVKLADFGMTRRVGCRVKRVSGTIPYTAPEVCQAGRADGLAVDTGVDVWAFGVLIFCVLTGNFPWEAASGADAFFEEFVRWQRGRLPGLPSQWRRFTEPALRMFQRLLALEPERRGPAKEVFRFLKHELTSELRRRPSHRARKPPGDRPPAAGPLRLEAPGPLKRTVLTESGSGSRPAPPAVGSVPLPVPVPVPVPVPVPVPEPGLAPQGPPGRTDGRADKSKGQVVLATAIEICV

various kinases [2] = molecular target: various kinases (Homo sapiens, UniProt Q96L34); conditions: MARK4
various kinases [3] = molecular target: various kinases (Homo sapiens, UniProt P09769); conditions: FGR
various kinases [4] = molecular target: various kinases (Homo sapiens, UniProt P49760); conditions: CLK2
various kinases [5] = molecular target: various kinases (Homo sapiens, UniProt O43293); conditions: DAPK3 (ZIPK)
various kinases [6] = molecular target: various kinases (Homo sapiens, UniProt Q06187); conditions: BTK
various kinases (Homo sapiens, UniProt Q06187), sequence (Q06187 whole entry): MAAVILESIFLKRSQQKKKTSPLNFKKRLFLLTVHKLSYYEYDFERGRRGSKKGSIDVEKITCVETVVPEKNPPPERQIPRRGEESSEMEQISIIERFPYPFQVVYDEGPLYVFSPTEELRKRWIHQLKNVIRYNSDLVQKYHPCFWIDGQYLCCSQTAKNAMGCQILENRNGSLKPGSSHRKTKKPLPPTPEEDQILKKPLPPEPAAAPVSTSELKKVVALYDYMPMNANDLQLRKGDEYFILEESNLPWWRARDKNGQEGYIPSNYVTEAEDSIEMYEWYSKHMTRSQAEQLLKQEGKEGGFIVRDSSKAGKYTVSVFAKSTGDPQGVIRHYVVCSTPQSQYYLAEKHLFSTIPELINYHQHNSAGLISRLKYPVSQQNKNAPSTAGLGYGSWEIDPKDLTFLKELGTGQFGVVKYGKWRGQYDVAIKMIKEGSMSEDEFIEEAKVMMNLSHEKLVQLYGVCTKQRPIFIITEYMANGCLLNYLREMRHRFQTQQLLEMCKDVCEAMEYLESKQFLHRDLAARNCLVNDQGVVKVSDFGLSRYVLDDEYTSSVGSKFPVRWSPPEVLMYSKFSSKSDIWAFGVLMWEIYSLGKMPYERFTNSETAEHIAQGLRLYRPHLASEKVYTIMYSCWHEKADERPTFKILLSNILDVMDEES

various kinases [7] = molecular target: various kinases (Homo sapiens, UniProt O14920); conditions: IKBKB (IKK beta)
various kinases [8] = molecular target: various kinases (Homo sapiens, UniProt P22607); conditions: FGFR3
various kinases [9] = molecular target: various kinases (Homo sapiens, UniProt P54756); conditions: EPHA5
various kinases [10] = molecular target: various kinases (Homo sapiens, UniProt P16234, T674I); conditions: PDGFRA T674I
various kinases (Homo sapiens, UniProt P16234, T674I), sequence (P16234 24-1089 T674I): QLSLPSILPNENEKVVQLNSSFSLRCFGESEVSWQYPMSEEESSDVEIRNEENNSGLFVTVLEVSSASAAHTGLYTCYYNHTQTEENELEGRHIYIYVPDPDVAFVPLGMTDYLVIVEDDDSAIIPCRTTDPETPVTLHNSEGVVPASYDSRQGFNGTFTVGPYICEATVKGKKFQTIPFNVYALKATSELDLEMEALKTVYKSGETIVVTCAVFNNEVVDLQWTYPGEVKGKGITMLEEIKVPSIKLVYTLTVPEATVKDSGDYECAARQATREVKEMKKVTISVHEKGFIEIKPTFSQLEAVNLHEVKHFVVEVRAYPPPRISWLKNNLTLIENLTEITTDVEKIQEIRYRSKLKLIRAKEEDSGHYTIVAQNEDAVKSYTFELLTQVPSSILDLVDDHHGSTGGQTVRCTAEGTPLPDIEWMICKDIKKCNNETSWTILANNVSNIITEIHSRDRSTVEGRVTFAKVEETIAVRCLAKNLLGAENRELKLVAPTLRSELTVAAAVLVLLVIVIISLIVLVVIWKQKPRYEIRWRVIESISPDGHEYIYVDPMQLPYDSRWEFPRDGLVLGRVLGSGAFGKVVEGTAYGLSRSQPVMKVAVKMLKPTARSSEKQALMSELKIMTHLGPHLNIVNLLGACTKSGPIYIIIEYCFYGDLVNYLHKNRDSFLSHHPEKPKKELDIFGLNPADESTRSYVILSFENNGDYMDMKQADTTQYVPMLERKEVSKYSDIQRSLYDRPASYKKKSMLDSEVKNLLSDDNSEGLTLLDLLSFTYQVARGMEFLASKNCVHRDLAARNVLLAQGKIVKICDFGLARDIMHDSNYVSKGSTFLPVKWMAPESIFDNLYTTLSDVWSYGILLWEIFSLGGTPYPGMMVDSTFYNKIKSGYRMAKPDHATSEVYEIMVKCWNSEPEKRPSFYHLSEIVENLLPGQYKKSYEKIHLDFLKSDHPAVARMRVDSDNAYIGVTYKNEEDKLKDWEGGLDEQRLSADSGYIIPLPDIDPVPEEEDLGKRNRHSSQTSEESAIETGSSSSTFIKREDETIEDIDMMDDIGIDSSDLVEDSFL

various kinases [11] = molecular target: various kinases (Homo sapiens, UniProt Q6VAB6); conditions: KSR2
various kinases [12] = molecular target: various kinases (Homo sapiens, UniProt P19784); conditions: CSNK2A2 (CK2 alpha 2)
various kinases [13] = molecular target: various kinases (Homo sapiens, UniProt P00519, E255K); conditions: ABL1 E255K
various kinases [14] = molecular target: various kinases (Homo sapiens, UniProt P15735); conditions: PHKG2
various kinases [15] = molecular target: various kinases (Homo sapiens, UniProt P35968); conditions: KDR (VEGFR2)
various kinases [16] = molecular target: various kinases (Homo sapiens, UniProt Q5VT25); conditions: CDC42 BPA (MRCKA)
various kinases [17] = molecular target: various kinases (Homo sapiens, UniProt O14757); conditions: CHEK1 (CHK1)
various kinases [18] = molecular target: various kinases (Homo sapiens, UniProt Q9H0K1); conditions: kinase SNF1LK2; ZLYTE
various kinases (Homo sapiens, UniProt Q9H0K1), sequence (Q9H0K1 whole entry): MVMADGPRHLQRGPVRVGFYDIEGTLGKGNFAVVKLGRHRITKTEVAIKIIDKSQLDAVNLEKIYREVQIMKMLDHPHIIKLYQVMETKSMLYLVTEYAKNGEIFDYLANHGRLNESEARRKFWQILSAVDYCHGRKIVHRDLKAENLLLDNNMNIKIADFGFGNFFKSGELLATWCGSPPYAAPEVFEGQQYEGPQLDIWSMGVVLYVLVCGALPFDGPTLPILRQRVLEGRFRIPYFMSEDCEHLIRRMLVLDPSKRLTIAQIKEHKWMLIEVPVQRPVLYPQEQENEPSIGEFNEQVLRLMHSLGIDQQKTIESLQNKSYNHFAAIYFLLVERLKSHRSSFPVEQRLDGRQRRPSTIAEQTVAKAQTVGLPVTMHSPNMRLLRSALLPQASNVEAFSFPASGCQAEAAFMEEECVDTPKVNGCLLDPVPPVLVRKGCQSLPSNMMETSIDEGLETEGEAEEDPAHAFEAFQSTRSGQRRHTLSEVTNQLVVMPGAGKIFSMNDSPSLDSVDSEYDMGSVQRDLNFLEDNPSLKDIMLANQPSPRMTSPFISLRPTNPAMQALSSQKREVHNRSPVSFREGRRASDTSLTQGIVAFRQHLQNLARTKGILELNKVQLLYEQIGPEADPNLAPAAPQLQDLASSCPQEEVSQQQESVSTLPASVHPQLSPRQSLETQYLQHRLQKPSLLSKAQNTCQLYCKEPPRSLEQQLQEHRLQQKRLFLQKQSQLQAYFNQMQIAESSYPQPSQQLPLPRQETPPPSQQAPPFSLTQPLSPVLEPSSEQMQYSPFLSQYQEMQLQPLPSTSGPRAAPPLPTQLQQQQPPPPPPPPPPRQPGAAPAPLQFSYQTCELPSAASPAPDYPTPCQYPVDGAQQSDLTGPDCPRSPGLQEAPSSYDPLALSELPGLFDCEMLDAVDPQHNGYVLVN

various kinases [19] = molecular target: various kinases (Homo sapiens, UniProt P49841); conditions: GSK3B (GSK3 beta)
various kinases [20] = molecular target: T1, various kinases (Homo sapiens, UniProt P51817); conditions: kinase PRKX; ZLYTE
T1 sequence (P51817 1-358): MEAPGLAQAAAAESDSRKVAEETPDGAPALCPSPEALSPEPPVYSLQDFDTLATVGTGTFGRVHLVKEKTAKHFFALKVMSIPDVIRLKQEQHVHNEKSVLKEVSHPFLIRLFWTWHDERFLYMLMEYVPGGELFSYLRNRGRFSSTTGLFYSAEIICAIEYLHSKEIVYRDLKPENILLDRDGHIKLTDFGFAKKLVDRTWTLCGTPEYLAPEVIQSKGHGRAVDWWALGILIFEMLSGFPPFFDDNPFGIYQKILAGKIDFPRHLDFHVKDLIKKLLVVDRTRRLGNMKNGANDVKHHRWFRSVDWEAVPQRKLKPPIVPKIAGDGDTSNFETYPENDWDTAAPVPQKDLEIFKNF

various kinases [21] = molecular target: T2, various kinases (Homo sapiens, UniProt Q9UHD2); conditions: kinase TBK1; ZLYTE
T2 sequence (Q9UHD2 1-729): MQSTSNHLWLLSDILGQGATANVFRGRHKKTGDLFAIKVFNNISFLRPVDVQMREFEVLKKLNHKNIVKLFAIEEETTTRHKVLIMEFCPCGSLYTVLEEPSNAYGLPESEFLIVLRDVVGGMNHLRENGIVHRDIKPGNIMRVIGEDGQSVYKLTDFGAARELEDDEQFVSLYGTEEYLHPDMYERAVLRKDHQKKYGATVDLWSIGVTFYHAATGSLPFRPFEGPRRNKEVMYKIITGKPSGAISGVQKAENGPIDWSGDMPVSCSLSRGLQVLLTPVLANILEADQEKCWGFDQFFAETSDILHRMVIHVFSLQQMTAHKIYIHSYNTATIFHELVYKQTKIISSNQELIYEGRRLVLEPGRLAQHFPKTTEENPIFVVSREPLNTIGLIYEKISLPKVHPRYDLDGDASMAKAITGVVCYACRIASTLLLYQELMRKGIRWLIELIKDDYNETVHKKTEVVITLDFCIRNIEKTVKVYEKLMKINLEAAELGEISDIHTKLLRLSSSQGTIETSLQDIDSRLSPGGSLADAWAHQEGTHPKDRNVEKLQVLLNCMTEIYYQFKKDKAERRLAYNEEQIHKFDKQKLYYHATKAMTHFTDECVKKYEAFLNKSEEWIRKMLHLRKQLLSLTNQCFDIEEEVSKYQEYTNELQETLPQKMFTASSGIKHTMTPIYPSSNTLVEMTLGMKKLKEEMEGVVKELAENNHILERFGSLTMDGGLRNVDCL

various kinases [22] = molecular target: various kinases (Homo sapiens, UniProt Q9NYY3); conditions: kinase PLK2; ZLYTE
various kinases (Homo sapiens, UniProt Q9NYY3), sequence (Q9NYY3 whole entry): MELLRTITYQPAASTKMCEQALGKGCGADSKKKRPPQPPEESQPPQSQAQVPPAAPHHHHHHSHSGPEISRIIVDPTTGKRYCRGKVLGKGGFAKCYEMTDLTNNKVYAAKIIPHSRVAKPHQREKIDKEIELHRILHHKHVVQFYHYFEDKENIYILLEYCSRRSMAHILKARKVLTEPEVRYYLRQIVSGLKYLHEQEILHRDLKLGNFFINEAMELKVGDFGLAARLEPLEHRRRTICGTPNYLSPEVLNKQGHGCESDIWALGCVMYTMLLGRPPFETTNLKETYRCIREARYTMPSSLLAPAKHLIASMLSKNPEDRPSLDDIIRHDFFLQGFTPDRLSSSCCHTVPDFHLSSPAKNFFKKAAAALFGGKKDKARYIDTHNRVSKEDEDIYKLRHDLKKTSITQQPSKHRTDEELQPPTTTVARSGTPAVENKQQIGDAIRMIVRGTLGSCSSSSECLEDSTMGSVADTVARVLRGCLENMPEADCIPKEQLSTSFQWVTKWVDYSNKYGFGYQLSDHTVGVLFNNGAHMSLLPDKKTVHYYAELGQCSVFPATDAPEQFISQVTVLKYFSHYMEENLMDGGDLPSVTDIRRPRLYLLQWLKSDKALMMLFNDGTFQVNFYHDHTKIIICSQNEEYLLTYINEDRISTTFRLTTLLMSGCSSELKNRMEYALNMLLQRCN

various kinases [23] = molecular target: various kinases (Homo sapiens, UniProt P00533, C797S); conditions: EGFR (ErbB1) C797S
various kinases (Homo sapiens, UniProt P00533, C797S), sequence (P00533 25-1210 C797S): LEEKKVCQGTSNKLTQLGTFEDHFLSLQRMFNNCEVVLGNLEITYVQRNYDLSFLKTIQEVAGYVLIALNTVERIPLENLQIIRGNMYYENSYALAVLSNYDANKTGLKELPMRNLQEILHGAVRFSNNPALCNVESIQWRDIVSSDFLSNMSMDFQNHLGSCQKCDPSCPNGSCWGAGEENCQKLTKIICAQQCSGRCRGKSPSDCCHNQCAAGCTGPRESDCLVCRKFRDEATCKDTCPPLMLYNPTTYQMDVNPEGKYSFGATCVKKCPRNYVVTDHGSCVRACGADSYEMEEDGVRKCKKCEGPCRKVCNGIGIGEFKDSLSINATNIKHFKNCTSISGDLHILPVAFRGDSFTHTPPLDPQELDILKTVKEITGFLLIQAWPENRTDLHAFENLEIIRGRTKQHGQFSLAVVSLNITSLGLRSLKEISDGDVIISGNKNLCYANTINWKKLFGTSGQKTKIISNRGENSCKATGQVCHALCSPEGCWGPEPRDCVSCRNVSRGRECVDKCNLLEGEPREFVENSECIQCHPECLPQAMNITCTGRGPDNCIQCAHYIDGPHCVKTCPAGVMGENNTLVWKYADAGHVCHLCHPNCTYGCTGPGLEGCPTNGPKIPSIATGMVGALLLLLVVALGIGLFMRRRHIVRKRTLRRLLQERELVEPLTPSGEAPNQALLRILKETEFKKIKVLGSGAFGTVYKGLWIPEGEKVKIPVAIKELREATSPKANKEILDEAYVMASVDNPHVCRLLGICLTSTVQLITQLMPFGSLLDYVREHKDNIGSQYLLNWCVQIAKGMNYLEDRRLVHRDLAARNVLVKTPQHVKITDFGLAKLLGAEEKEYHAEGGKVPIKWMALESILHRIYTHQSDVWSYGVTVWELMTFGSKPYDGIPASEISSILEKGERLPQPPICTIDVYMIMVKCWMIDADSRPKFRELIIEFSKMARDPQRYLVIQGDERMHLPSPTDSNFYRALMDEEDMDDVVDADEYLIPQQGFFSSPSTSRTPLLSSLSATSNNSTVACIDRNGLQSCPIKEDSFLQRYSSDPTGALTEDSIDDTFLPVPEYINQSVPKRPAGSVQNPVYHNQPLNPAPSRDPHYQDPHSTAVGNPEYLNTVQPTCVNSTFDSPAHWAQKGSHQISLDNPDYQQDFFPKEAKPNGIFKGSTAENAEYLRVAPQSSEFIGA

various kinases [24] = molecular target: various kinases (Homo sapiens, UniProt P00533, L861Q); conditions: EGFR (ErbB1) L861Q
various kinases [25] = molecular target: various kinases (Homo sapiens, UniProt P08631); conditions: HCK

Structure (SMILES): COc1ccc2c(c1)[C@]1(C[C@H]1c1ccc3c(/C=C/c4ccc(CN5C[C@@H](C)O[C@@H](C)C5)cc4)n[nH]c3c1)C(=O)N2 [CFI-400945]
- % Inhibition Average (various kinases [1]): 0%
- % Inhibition Duplicate #1 (various kinases [1]): -1%
- % Inhibition Duplicate #2 (various kinases [1]): 2%
- % Inhibition (various kinases [2]): 8% and 3%
- % Inhibition (various kinases [3]): 28% and 26%
- % Inhibition (various kinases [4]): 0% and 7%
- % Inhibition (various kinases [5]): 1% and 2%
- % Inhibition (various kinases [6]): 6% and 3%
- % Inhibition (various kinases [7]): 5% and 4%
- % Inhibition (various kinases [8]): 11% and 14%
- % Inhibition (various kinases [9]): 8% and 5%
- % Inhibition (various kinases [10]): 1% and 2%
- % Inhibition (various kinases [11]): 3% and 4%
- % Inhibition (various kinases [12]): -1% and 0%
- % Inhibition (various kinases [13]): 39% and 36%
- % Inhibition (various kinases [14]): 8% and 7%
- % Inhibition (various kinases [15]): 16% and 15%
- % Inhibition (various kinases [16]): 3% and 10%
- % Inhibition (various kinases [17]): 9% and 11%
- % Inhibition Average (various kinases [18]): 5%
- % Inhibition Duplicate #1 (various kinases [18]): 4%
- % Inhibition Duplicate #2 (various kinases [18]): 5%
- % Inhibition (various kinases [19]): 7% and 6%
- % Inhibition Average (various kinases [20]): 5%
- % Inhibition Duplicate #1 (various kinases [20]): 6%
- % Inhibition Duplicate #2 (various kinases [20]): 4%
- % Inhibition Average (various kinases [21]): 4%
- % Inhibition Duplicate #1 (various kinases [21]): 3%
- % Inhibition Duplicate #2 (various kinases [21]): 4%
- % Inhibition Average (various kinases [22]): 4%
- % Inhibition Duplicate #1 (various kinases [22]): 4%
- % Inhibition Duplicate #2 (various kinases [22]): 4%
- % Inhibition (various kinases [23]): 11% and 5%
- % Inhibition (various kinases [24]): 3% and 0%
- % Inhibition (various kinases [25]): 13% and 11%
